Source: patent publication US20240010659A1, “NEW THIADIAZOLOPYRIMIDONE DERIVATIVES” (Hoffmann-La Roche Inc., priority 2021, published 2024)

system: mutant HTT protein (mHTT); assay: Homogeneous Time Resolved Fluorescence (HTRF) assay for HTT lowering in GENEAe020-A cells; type: cell-based; settings: reduction of mHTT in Huntington patient human cells (GENEAe020-A cell line), 48 hours incubation, mean from three replicates
Method: Homogeneous Time Resolved Fluorescence for HTT Lowering
The HTRF assay was adapted from Weiss et al. (Analytical Biochemistry Volume 395, Issue 1, 1 Dec. 2009, Pages 8-15 and Analytical Biochemistry Volume 410, 2011, Pages 304-306) to cells from GENEAe020-A cell line (https://hpscreg.eu/cell-line/GENEAe020-A).
Compounds were tested for the effect of mutant HTT levels in Huntington patient human cells (GENEAe020-A cell line) using Homogeneous Time Resolved Fluorescence (HTRF) directed towards mutant HTT protein (mHTT). The GENEAe020-A cell line was derived by Genea Biocells from human blastocysts of HD donors. After assessing viability, cells were plated into 384 well collagen coated plates in growth media. Once cells adhered, media was removed and test compounds dissolved in DMSO were diluted with buffer solution and added to the adherent cells. Controls included experiments with no cells, DMSO with no compound, and Hsp90 inhibitor control. Cells were incubated with compounds and controls for 48 hours. Then, the cells were lysed and transferred to an assay plate containing HTRF labeled monoclonal antibodies developed by Paul Patterson (Ko et al., Brain Research Bulletin, Volume 56, Numbers 3 and 4, 2001, Pages 319-329) which recognize specific areas of the HTT protein. The terbium labeled “donor” antibody (2B7) binds to the N-terminus of the HTT protein and the Alexa488 labeled “acceptor” antibody (MW1) is specific for the polyglutamine region of the protein. Binding of the acceptor labeled antibody is more efficient for the extended polyglutamine repeats of mutant HTT protein which translates into a signal boost which enables the specific measurement of mutant HTT protein level. The HTRF donor and acceptor detection reagents were incubated with the cell lysate and the ratio between the signals of the two fluorophores is indicative of the relative quantities of mHTT.

Compound | EC50
Cc1cn2nc(-c3cc(=O)n4nc(N5CCNCC5)sc4n3)cc(C)c2n1 [Example 1, 7-(2,8-dimethylimidazo[1,2-b]pyridazin-6-yl)-2-piperazino-[1,3,4]thiadiazolo[3,2-a]pyrimidin-5-one] | 821 nM
Cc1cn2nc(-c3cc(=O)n4nc(C5CCNCC5)sc4n3)cc(C)c2n1 [Example 2, 7-(2,8-dimethylimidazo[1,2-b]pyridazin-6-yl)-2-(4-piperidyl)-[1,3,4]thiadiazolo[3,2-a]pyrimidin-5-one] | 196 nM
Cc1cn2cc(-c3cc(=O)n4nc(C5CCNCC5)sc4n3)cc(F)c2n1 [Example 3, 7-(8-fluoro-2-methyl-imidazo[1,2-a]pyridin-6-yl)-2-(4-piperidyl)-[1,3,4]thiadiazolo[3,2-a]pyrimidin-5-one] | 7400 nM
Cc1cn2nc(-c3cc(=O)n4nc(N5C[C@@H](C)N[C@@H](C)C5)sc4n3)cc(C)c2n1 [Example 4, 7-(2,8-dimethylimidazo[1,2-b]pyridazin-6-yl)-2-[(3R,5S)-3,5-dimethylpiperazin-1-yl]-[1,3,4]thiadiazolo[3,2-a]pyrimidin-5-one] | 2040 nM
Cc1cn2nc(-c3cc(=O)n4nc(N5CCNC6(CC6)C5)sc4n3)cc(C)c2n1 [Example 6, 2-(4,7-diazaspiro[2.5]octan-7-yl)-7-(2,8-dimethylimidazo[1,2-b]pyridazin-6-yl)-[1,3,4]thiadiazolo[3,2-a]pyrimidin-5-one] | 5840 nM
Cc1cn2nc(-c3cc(=O)n4nc(C5CCNC6(CC6)C5)sc4n3)cc(C)c2n1 (stereo not drawn) [Example 7, 2-(4-azaspiro[2.5]octan-7-yl)-7-(2,8-dimethylimidazo[1,2-b]pyridazin-6-yl)-[1,3,4]thiadiazolo[3,2-a]pyrimidin-5-one] | 302 nM
Cc1cn2nc(-c3cc(=O)n4nc(C5(F)CCNCC5)sc4n3)cc(C)c2n1 [Example 8, 7-(2,8-dimethylimidazo[1,2-b]pyridazin-6-yl)-2-(4-fluoro-4-piperidyl)-[1,3,4]thiadiazolo[3,2-a]pyrimidin-5-one] | 315 nM
Cc1cn2nc(-c3cc(=O)n4nc(C5CCNCC5)sc4n3)cc(C(F)(F)F)c2n1 [Example 9, 7-[2-methyl-8-(trifluoromethyl)imidazo[1,2-b]pyridazin-6-yl]-2-(4-piperidyl)-[1,3,4]thiadiazolo[3,2-a]pyrimidin-5-one] | 700 nM
Cc1cn2nc(-c3cc(=O)n4nc(C5CCNC5)sc4n3)cc(C)c2n1 (stereo not drawn) [Example 10, 7-(2,8-dimethylimidazo[1,2-b]pyridazin-6-yl)-2-pyrrolidin-3-yl-[1,3,4]thiadiazolo[3,2-a]pyrimidin-5-one] | 5220 nM
